Measurements taken from patent US20190015383A1, “CANNABINOID COMPOSITIONS AND METHODS OF PREPARATION THEREOF” (5071, Inc., priority 2017, published 2019).

Test: Water solubility testing (solubility time in water)
Assay type: physicochemical
Settings: 10 mg sample in 240 mL water, magnetic stirring
Protocol: Water solubility testing was performed for Compositions C, D1, D2, and E described in Examples 3, 4, and 6. Each composition was tested at temperatures of 22° C. (tap water) and 10° C. (iced tap water). For each test, 240 mL of water at the target temperature (22° C. or 10° C.) was added to a beaker and a magnetic stirrer used with medium agitation, creating a slight vortex. A 10 mg sample of the composition to be tested was added over a 1-2 second time period and allowed to mix. The time in seconds until no particulates were visually discernable (either suspended in solution or settled out) was recorded as the solubility time. The solubility of table sugar (i.e., granulated sucrose) was also tested according to the same procedure for comparison.
The following categories were used to assess solubility characteristics: <30 sec=excellent to good solubility, 1-3 min=fair solubility, 3-5 min=poor solubility, and >5 min=insoluble.

Which Solubility time (10° C. (iced tap water)) does the source give for `OC[C@H]1O[C@@](CO)(O[C@H]2O[C@H](CO)[C@@H](O)[C@H](O)[C@H]2O)[C@@H](O)[C@@H]1O` [Table sugar, sucrose] here?
Its Solubility time is <60 s.

And the Solubility time (22° C. (tap water))?
Its Solubility time is 22 s.
